Experimental data: patent US12103924B2, “Mitogen-activated protein kinase kinase (MEK) degradation compounds and methods of use” (Icahn School of Medicine at Mount Sinai, priority 2020, dated 2024)

Experiments:
SK-MEL-28 cells = assay: WST-8 cell viability assay, SK-MEL-28; assay type: cell-based; details: for growth of cells: WST-8 3 d serial dilutions
Method: (§1) Cells were fixed and stained by crystal violet.
(§2) Cells (2000 cells per well) were seeded into 96-well microplates. After 20 h, cells were treated with 0.1% DMSO or indicated serial dilutions of compounds in duplicate or triplicate for 3 days. Cell viability was tested using MTT (M6494, Thermo Fisher Scientific) or WST-8 reagent (CK04, Dojindo). Briefly, 12 mM MTT was prepared in PBS or WST-8 reagent was warmed up to room temperature. 20 μL MTT or CCK-8 was then added to each well and the plates were kept in incubator at 37° C. for 3 h in the dark. For the WST-8 assay, signal was obtained after the incubation. For the MTT assay, cell medium was replaced with 200 μL of DMSO after the incubation, and then cell plates were kept at 37° C. for another 30 min. Absorbance signals for MTT and WST-8 were read at 540 nm and 450 nm respectively, with 690 nm as reference performed with Infinite F PLEX plate reader (TECAN, Morrisville, NC, USA). GI50 values were analyzed using GraphPad Prism 8 from the data of at least three independent experiments.

MEK1 and MEK2 proteins = assay: Global proteome analysis of HT-29 cells; assay type: cell-based, human
Method: […] […] P values were calculated from the data of two technical replicates. (A) DMSO compared to CPD-031 treated samples; (B) CPD-034 compared to CPD-031 treated samples; (C) DMSO compared to CPD-034 treated samples.
Proteins outside the significance lines were labeled with pink or purple color (FDR=0.05, S0=1). P values were calculated from the data of two technical replicates.
Protein Extraction and Digestion. Cells with indicated treatments were harvested and lysed in lysis buffer (6 M guanidine hydrochloride, 100 mM Tris-HCl pH 8.0). Sonication (5 s on, 5 s off, 2×30 s) was performed to shear genome DNA. Lysate were centrifugated for 30 min at 3,500 g at 4° C. and the supernatant were transferred to a clean tube, diluted 50% with Milli-Q H2O, then precipitated by addition of cold acetone (four times the original volume), and placed at −20° C. overnight. Precipitated proteins were brought down at 20,000 g at 4° C. for 10 min, and washed with cold acetone after discarding the supernatant. The pellet was air-dried at RT for 5 min and solubilized with 50 mM Tris-HCl (PH 8.0), 8 M urea. Protein concentration was determined (BCA assay) and protein was reduced with 5 mM DTT (dithiothreitol), alkylated with 15 mM IAA (iodoacetamide) in the dark, then diluted with buffer 25 mM Tris (pH 8.0) and 1 mM CaCl2 (three times the original volume). The final urea concentration is 2 M. Trypsin was added into protein solution with 1:100 ratio (trypsin:protein), and digested 12-16 h or overnight at RT.
Mass Spectrometry Analysis. Peptides were cleaned up by C18 stage tips and the concentration was determined (Peptide assay, 23275, Thermo Fisher Scientific). The clean peptides were dissolved in 0.1% formic acid and analyzed on a Q-Exactive HF-X coupled with an Easy nanoLC 1200 (Thermo Fisher Scientific, San Jose, CA). 0.5 μg of peptides were loaded onto an Acclain PepMap RSLC C18 Column (250 mm×75 μm ID, C18, 2 μm, Thermo Fisher Scientific). […] A linear gradient of 5 to 30% buffer B over 110 min was executed at a 300 nl/min flow rate followed a ramp to 100% B in 5 min, and 15-min wash with 100% B, where buffer A was aqueous 0.1% formic acid, and buffer B was 80% acetonitrile and 0.1% formic acid.
LC-MS experiments were performed in a data-dependent mode with full MS (externally calibrated to a mass accuracy of <5 ppm and a resolution of 60,000 at m/z 200) followed by high energy collision-activated dissociation-MS/MS of the top 20 most intense ions with a resolution of 15,000 at m/z 200. High energy collision-activated dissociation-MS/MS was used to dissociate peptides at a normalized collision energy of 27 eV in the presence of nitrogen bath gas atoms. Dynamic exclusion was 30.0 seconds. Each sample was subjected to two technical LC-MS replicates.
MS Data Analysis. Mass spectra processing and peptide identification were performed on the Andromeda search engine in MaxQuant software (Version 1.6.0.16) against the human UniProt database (UP000005640). All searches were conducted with a defined modification of cysteine carbamidomethylation, with methionine oxidation and protein amino-terminal acetylation as dynamic modifications. Peptides were confidently identified using a target-decoy approach with a peptide false discovery rate (FDR) of 1% and a protein FDR of 1%. A minimum peptide length of 7 amino acids was required, maximally two missed cleavages were allowed, initial mass deviation for precursor ion was up to 7 ppm, and the maximum allowed mass deviation for fragment ions was 0.5 Da. Data processing and statistical analysis were performed on Perseus (Version 1.6.0.7). Protein quantitation was performed on duplicate runs, and a two-sample t-test statistics was used to report statistically significant expression fold-changes.

HT-29 cells = assay: WST-8 cell viability assay, HT-29; assay type: cell-based; details: for growth of cells: WST-8 3 d serial dilutions, clonogenic assay 10 d
Method: as §1, §2

pMEK and pERK [1] = assay: Western blot of MEK and ERK phosphorylation in HT-29 cells; assay type: cell-based; details: HT-29 cells; for phosphorylation of MEK and ERK / pERK signaling, time-dependent: 0.1 μM or 0.3 μM, harvested at indicated time points; for phosphorylation of MEK and ERK proteins, concentration-dependent: serial dilution, 24 h, western blot
MEK1/2 [2] = assay: Western blot of MEK1/2 protein levels in SK-MEL-28 cells; details: SK-MEL-28 cells; for MEK1 and MEK2 protein levels, time-dependent: 0.1 μM or 0.3 μM, harvested at indicated time points; for MEK1 and MEK2 protein levels, concentration-dependent: serial dilution, 24 h, western blot
Method: (§3) The indicated protein levels were determined by Western blots.
(§4) The sample was centrifuged at 12,000 g for 10 min at 4° C. to get supernatant as cell lysate. Protein concentrations were quantified using Pierce rapid gold BCA protein assay kit.

MEK1/2 [3] = assay: Western blot of MEK1/2 protein levels in HT-29 cells; assay type: cell-based; details: for MEK1 and MEK2 protein levels, time-dependent: 0.1 μM or 0.3 μM, harvested at indicated time points; for MEK1 and MEK2 protein levels / MEK1 and MEK2 protein levels, concentration-dependent: 24 h; for MEK1 and MEK2 protein levels, concentration-dependent: serial dilution, western blot
Method: Compound concentrations are 0.3 μM, 1 μM and 3 μM.
as §3, §4

pMEK and pERK [4] = assay: Western blot of MEK and ERK phosphorylation in SK-MEL-28 cells; details: SK-MEL-28 cells; for phosphorylation of MEK and ERK / pERK signaling, time-dependent: 0.1 μM or 0.3 μM, harvested at indicated time points; for phosphorylation of MEK and ERK proteins, concentration-dependent: serial dilution, 24 h, western blot
SUDHL1 cells = assay: WST-8 cell viability assay, SUDHL1; assay type: cell-based; details: WST-8, 3 d
Method: as §2

H3122 cells = assay: WST-8 cell viability assay, H3122; assay type: cell-based; details: WST-8, 3 d
Method: as §2

MEK2 = molecular target: T1, MEK2 (Homo sapiens, UniProt P36507); assay: HotSpot kinase inhibition assay, MEK2; assay type: biochemical; details: MEK2 150 nM, ERK K52R substrate, 33P-ATP, normalized with DMSO
T1 construct: purchased Thermo Fisher Scientific PV3615
T1 sequence (P36507 whole entry): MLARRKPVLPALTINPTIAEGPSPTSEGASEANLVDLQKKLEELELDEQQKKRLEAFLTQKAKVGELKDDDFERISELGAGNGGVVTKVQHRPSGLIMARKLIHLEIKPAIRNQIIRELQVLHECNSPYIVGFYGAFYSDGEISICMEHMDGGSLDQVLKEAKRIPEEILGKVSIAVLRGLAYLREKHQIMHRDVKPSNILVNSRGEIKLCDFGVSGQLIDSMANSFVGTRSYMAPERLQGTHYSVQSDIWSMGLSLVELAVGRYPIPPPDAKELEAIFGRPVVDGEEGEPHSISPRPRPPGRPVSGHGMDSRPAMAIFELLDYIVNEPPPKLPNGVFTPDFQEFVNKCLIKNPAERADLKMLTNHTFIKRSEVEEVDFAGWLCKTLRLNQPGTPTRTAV

MEK1 = molecular target: T2, MEK1 (Homo sapiens, UniProt Q02750); assay: HotSpot kinase inhibition assay, MEK1; assay type: biochemical; details: MEK1 100 nM, ERK K52R substrate, 33P-ATP, normalized with DMSO
T2 construct: purchased Thermo Fisher Scientific PV3303
T2 sequence (Q02750 whole entry): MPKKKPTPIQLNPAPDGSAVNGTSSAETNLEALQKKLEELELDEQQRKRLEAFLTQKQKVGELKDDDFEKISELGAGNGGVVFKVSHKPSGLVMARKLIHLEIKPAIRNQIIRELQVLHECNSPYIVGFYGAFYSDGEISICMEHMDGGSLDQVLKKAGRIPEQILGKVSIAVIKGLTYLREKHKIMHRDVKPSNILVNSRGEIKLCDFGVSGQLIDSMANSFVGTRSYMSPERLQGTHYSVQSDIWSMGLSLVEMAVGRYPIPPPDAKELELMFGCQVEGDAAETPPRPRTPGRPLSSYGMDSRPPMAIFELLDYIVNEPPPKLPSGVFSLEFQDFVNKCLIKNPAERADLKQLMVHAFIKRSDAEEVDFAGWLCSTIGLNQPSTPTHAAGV

[5] = 8 h, 0.1 μM CPD-038 or CPD-052, 0.3 μM CPD-051 or CPD-097, versus 0.1% DMSO

Structure (SMILES)	growth of cells (SK-MEL-28 cells)	protein levels in the global proteomic study (MEK1 and MEK2 proteins; [5])	growth of cells (HT-29 cells)	phosphorylation of MEK and ERK / pERK signaling, time-dependent (pMEK and pERK [1])	phosphorylation of MEK and ERK proteins, concentration-dependent (pMEK and pERK [1])	MEK1 and MEK2 protein levels, time-dependent (MEK1/2 [2])	MEK1 and MEK2 protein levels, concentration-dependent (MEK1/2 [2])	MEK1 and MEK2 protein levels, time-dependent (MEK1/2 [3]; HT-29 cells)	MEK1 and MEK2 protein levels (MEK1/2 [3]; HT-29 cells, 0.3 μM, 1 μM and 3 μM, western blot normalized with α-tubulin)	MEK1 and MEK2 protein levels, concentration-dependent (MEK1/2 [3]; HT-29 cells)	phosphorylation of MEK and ERK / pERK signaling, time-dependent (pMEK and pERK [4])	phosphorylation of MEK and ERK proteins, concentration-dependent (pMEK and pERK [4])	growth inhibition compared with AZ compound (SUDHL1 cells)	growth inhibition compared with AZ compound (H3122 cells)	protein levels in the global proteomic study (MEK1 and MEK2 proteins; 10 h, 0.1 μM, versus 0.1% DMSO)	MEK1 and MEK2 protein levels (MEK1/2 [3]; HT-29 cells, 0.1, 0.3, or 1 μM)	MEK2 kinase activity (MEK2)	MEK1 kinase activity (MEK1)	growth inhibition compared with AZ compound (SK-MEL-28 cells; WST-8, 3 d)	growth inhibition compared with AZ compound (HT-29 cells; WST-8, 3 d)
CN1C(=O)CCC(N2C(=O)c3ccc(NCCOCCOCCOCCOCCOCCNCCCONC(=O)c4ccc(F)c(F)c4Nc4ccc(I)cc4F)cc3C2=O)C1=O (stereo not shown) [CPD-097, 3,4-difluoro-2-((2-fluoro-4-iodophenyl)amino)-N-((1-((2-(1-methyl-2,6-dioxopiperidin-3-yl)-1,3-dioxoisoindolin-5-yl)amino)-3,6,9,12,15-pentaoxa-18-azahenicosan-21-yl)oxy)benzamide]	did not significantly suppress	did not significantly modulate	did not significantly suppress																	
Cc1ncsc1-c1ccc([C@H](C)NC(=O)[C@H]2C[C@H](O)CN2C(=O)[C@@H](NC(=O)CCCCCCCCCCCNCCCCONC(=O)c2ccc(F)c(F)c2Nc2ccc(I)cc2F)C(C)(C)C)cc1 [CPD-052, (2R,4S)-1-((S)-22-(tert-butyl)-1-(3,4-difluoro-2-((2-fluoro-4-iodophenyl)amino)phenyl)-1,20-dioxo-3-oxa-2,8,21-triazatricosan-23-oyl)-4-hydroxy-N-((S)-1-(4-(4-methylthiazol-5-yl)phenyl)ethyl)pyrrolidine-2-carboxamide]	did not significantly suppress	did not significantly modulate	did not significantly suppress																	
O=C1CCC(N2C(=O)c3ccc(NCCOCCOCCOCCOCCOCCNCCCONC(=O)c4ccc(F)c(F)c4Nc4ccc(I)cc4F)cc3C2=O)C(=O)N1 (stereo not shown) [CPD-051, N-((1-((2-(2,6-dioxopiperidin-3-yl)-1,3-dioxoisoindolin-5-yl)amino)-3,6,9,12,15-pentaoxa-18-azahenicosan-21-yl)oxy)-3,4-difluoro-2-((2-fluoro-4-iodophenyl)amino)benzamide]	significantly suppressed	selectively degraded	significantly suppressed	inhibit	inhibited	degrade	concentration-dependently reduced	degrade	significantly degraded	concentration-dependently reduced	inhibit	inhibited								
Cc1ncsc1-c1ccc([C@H](C)NC(=O)[C@@H]2C[C@@H](O)CN2C(=O)[C@@H](NC(=O)CCCCCCCCCCCNCCCCONC(=O)c2ccc(F)c(F)c2Nc2ccc(I)cc2F)C(C)(C)C)cc1 [CPD-038, (2S,4R)-1-((S)-22-(tert-butyl)-1-(3,4-difluoro-2-((2-fluoro-4-iodophenyl)amino)phenyl)-1,20-dioxo-3-oxa-2,8,21-triazatricosan-23-oyl)-4-hydroxy-N—((S)-1-(4-(4-methylthiazol-5-yl)phenyl)ethyl)pyrrolidine-2-carboxamide]		selectively degraded		inhibit		degrade		degrade			inhibit		more potent	more potent						
Cc1ncsc1-c1ccc([C@H](C)NC(=O)C2CC(O)CN2C(=O)[C@@H](NC(=O)CCCCCCCCCCNCCCONC(=O)c2ccc(F)c(F)c2Nc2ccc(I)cc2F)C(C)(C)C)cc1 (stereo in doubt) [CPD-034, (2R,4S)-1-((S)-20-(tert-butyl)-1-(3,4-difluoro-2-((2-fluoro-4-iodophenyl)amino)phenyl)-1,18-dioxo-3-oxa-2,7,19-triazahenicosan-21-oyl)-4-hydroxy-N—((S)-1-(4-(4-methylthiazol-5-yl)phenyl)ethyl)pyrrolidine-2-carboxamide]															did not significantly modulate	not	inhibited	inhibited		
Cc1ncsc1-c1ccc([C@H](C)NC(=O)[C@@H]2C[C@@H](O)CN2C(=O)[C@@H](NC(=O)CCCCCCCCCCN(C)CCCONC(=O)c2ccc(F)c(F)c2Nc2ccc(I)cc2F)C(C)(C)C)cc1 [CPD-037, (2S,4R)-1-((S)-20-(tert-butyl)-1-(3,4-difluoro-2-((2-fluoro-4-iodophenyl)amino)phenyl)-7-methyl-1,18-dioxo-3-oxa-2,7,19-triazahenicosan-21-oyl)-4-hydroxy-N—((S)-1-(4-(4-methylthiazol-5-yl)phenyl)ethyl)pyrrolidine-2-carboxamide]	significantly suppressed		significantly suppressed	inhibit	inhibit	degrade	degrade	degrade		degrade	inhibit	inhibit	more potent	more potent					more potent	more potent
